Literature values in patent US20070135435A1, “Certain chemical entities, compositions, and methods” (priority 2005, published 2007).

tested on: A549 cells

Structure (SMILES) | GI50 [nM]
COc1cccc2c1C(=O)c1c(O)c3c(c(O)c1C2=O)C[C@@](O)(C(=O)CO)C[C@@H]3O[C@H]1C[C@H](N)[C@H](O)[C@H](C)O1 [doxorubicin] | 63
O=c1[nH]cc(F)c(=O)[nH]1 [5-fluorouracil] | 1000
NC(=O)NO [hydroxyurea] | 500000
CC(=O)O[C@H]1C(=O)[C@@]2(C)[C@H]([C@H](OC(=O)c3ccccc3)[C@]3(O)C[C@H](OC(=O)[C@H](O)[C@@H](NC(=O)c4ccccc4)c4ccccc4)C(C)=C1C3(C)C)[C@]1(OC(C)=O)CO[C@@H]1C[C@@H]2O [paclitaxel] | 4
